Experimental data reported in US10253052B2, “HBED-bisphosphonates, radiometal conjugates and their use as theranostic agents” (Five Eleven Pharma Inc., priority 2015, dated 2019).
Several values for one entry are separate records, joined by “and”; a condition that tells them apart may be missing. Equal values may be shown once. Entries after “also recorded” stand apart in the source; their conditions may differ.

Key:
[1] = In vitro binding to hydroxyapatite; settings: 20 mg hydroxyapatite in saline, 10 min at room temperature
Outline: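 Hydroxyapatite was pre-incubated 24 h in isotonic saline, then ^68Ga-labelled compound (1 μCi) was added and incubated 10 min at room temperature. After centrifugation and two saline washes, gamma counting of supernatants and solid gave percent ^68Ga bound to hydroxyapatite.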

[2] = In vivo biodistribution in mice; set-up: species or system normal CD-1 male mice; settings: for bone to blood ratio / bone to muscle ratio / Biodistribution: Blood / Biodistribution: Bone / Biodistribution: Brain / Biodistribution: Heart / Biodistribution: Kidney / Biodistribution: Liver / Biodistribution: Lung / Biodistribution: Muscle / Biodistribution: Pancreas / Biodistribution: Skin / Biodistribution: Spleen: iv
Outline: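 Normal male CD-1 mice (25-30 g) received 20-30 μCi of ^68Ga-labelled tracer or [^18F]NaF intravenously and were sacrificed at 2, 30, 60 and 120 min. Harvested organs, with tibia and femur as bone, were weighed and gamma-counted; uptake is expressed as % ID/g wet tissue.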

[3] = Micro-PET imaging in normal mice; format: in vivo, normal CD-1 male mice; settings: 15 min scan at 60 min post-injection
Description: [^68Ga]1a, [^68Ga]BPAMD and [^18F]NaF were tested in normal CD-1 male mice. [^68Ga]1g was tested in PSMA expressing LNCaP tumor bearing nude mice. Mice received 300-500 uCi radiotracer through a tail vein injection. PET imaging was performed under isoflurane anaesthesia (2% isoflurane, 1.5 L/min oxygen). The microPET imaging was performed with a small animal PET (Mosaic by Phillips, USA). During PET measurements, the animals were placed in the prone position. At 60 min post injection of the radiotracer, data acquisition was performed for 15 min.

O=C([O-])CN(CCN(CC(=O)[O-])Cc1cc(CCC(=O)NC(P(=O)(O)O)P(=O)(O)O)ccc1[O-])Cc1cc(CCC(=O)O)ccc1[O-].[68Ga+3] [[^68Ga]1a]
Hydroxyapatite Binding (%) [1]: 92.3 ± 1.1%
bone to blood ratio ([2]; 2 min): 0.9
bone to muscle ratio ([2]; 2 min): 4.8
Biodistribution: Blood ([2]; 2 min post injection): 9.39 ± 0.93 % dose/g
Biodistribution: Bone ([2]; 2 min post injection): 8.60 ± 0.85 % dose/g
Biodistribution: Brain ([2]; 2 min post injection): 0.31 ± 0.10 % dose/g
Biodistribution: Heart ([2]; 2 min post injection): 3.28 ± 0.13 % dose/g
Biodistribution: Kidney ([2]; 2 min post injection): 31.2 ± 1.92 % dose/g
Biodistribution: Liver ([2]; 2 min post injection): 1.95 ± 0.15 % dose/g
Biodistribution: Lung ([2]; 2 min post injection): 4.28 ± 0.21 % dose/g
Biodistribution: Muscle ([2]; 2 min post injection): 1.80 ± 0.16 % dose/g
Biodistribution: Pancreas ([2]; 2 min post injection): 1.58 ± 0.10 % dose/g
Biodistribution: Skin ([2]; 2 min post injection): 2.18 ± 0.28 % dose/g
Biodistribution: Spleen ([2]; 2 min post injection): 1.89 ± 0.20 % dose/g
bone to blood ratio ([2]; 30 min): 36
bone to muscle ratio ([2]; 30 min): 96
Biodistribution: Blood ([2]; 30 min (0.5 hr) post injection): 0.45 ± 0.10 % dose/g
Biodistribution: Bone ([2]; 30 min (0.5 hr) post injection): 16.0 ± 1.22 % dose/g
Biodistribution: Brain ([2]; 30 min (0.5 hr) post injection): 0.02 ± 0.01 % dose/g
Biodistribution: Heart ([2]; 30 min (0.5 hr) post injection): 0.22 ± 0.02 % dose/g
Biodistribution: Kidney ([2]; 30 min (0.5 hr) post injection): 1.54 ± 0.29 % dose/g
Biodistribution: Liver ([2]; 30 min (0.5 hr) post injection): 0.32 ± 0.20 % dose/g
Biodistribution: Lung ([2]; 30 min (0.5 hr) post injection): 0.38 ± 0.03 % dose/g
Biodistribution: Muscle ([2]; 30 min (0.5 hr) post injection): 0.17 ± 0.03 % dose/g
Biodistribution: Pancreas ([2]; 30 min (0.5 hr) post injection): 0.30 ± 0.27 % dose/g
Biodistribution: Skin ([2]; 30 min (0.5 hr) post injection): 0.42 ± 0.12 % dose/g
Biodistribution: Spleen ([2]; 30 min (0.5 hr) post injection): 0.17 ± 0.01 % dose/g
bone to blood ratio ([2]; 60 min): 118
Biodistribution: Blood ([2]; 60 min (1 hr) post injection): 0.20 ± 0.06 % dose/g
Biodistribution: Bone ([2]; 60 min (1 hr) post injection): 23.5±1.4 % dose/g and 23.5 ± 1.42 % dose/g
Biodistribution: Brain ([2]; 60 min (1 hr) post injection): 0.02 ± 0.01 % dose/g
Biodistribution: Heart ([2]; 60 min (1 hr) post injection): 0.12 ± 0.02 % dose/g
Biodistribution: Kidney ([2]; 60 min (1 hr) post injection): 1.63 ± 0.71 % dose/g
Biodistribution: Liver ([2]; 60 min (1 hr) post injection): 0.17 ± 0.01 % dose/g
Biodistribution: Lung ([2]; 60 min (1 hr) post injection): 0.21 ± 0.03 % dose/g
Biodistribution: Muscle ([2]; 60 min (1 hr) post injection): 0.08 ± 0.02 % dose/g
Biodistribution: Pancreas ([2]; 60 min (1 hr) post injection): 0.09 ± 0.02 % dose/g
Biodistribution: Skin ([2]; 60 min (1 hr) post injection): 0.19 ± 0.05 % dose/g
Biodistribution: Spleen ([2]; 60 min (1 hr) post injection): 0.10 ± 0.02 % dose/g
bone to blood ratio ([2]; 120 min): 320
bone to muscle ratio ([2]; 120 min): 447
Biodistribution: Blood ([2]; 120 min post injection): 0.07 ± 0.03 % dose/g
Biodistribution: Bone ([2]; 120 min post injection): 23.9 ± 1.99 % dose/g
Biodistribution: Brain ([2]; 120 min post injection): 0.01 ± 0.00 % dose/g
Biodistribution: Heart ([2]; 120 min post injection): 0.07 ± 0.01 % dose/g
Biodistribution: Kidney ([2]; 120 min post injection): 0.92 ± 0.10 % dose/g
Biodistribution: Liver ([2]; 120 min post injection): 0.14 ± 0.02 % dose/g
Biodistribution: Lung ([2]; 120 min post injection): 0.12 ± 0.03 % dose/g
Biodistribution: Muscle ([2]; 120 min post injection): 0.05 ± 0.01 % dose/g
Biodistribution: Pancreas ([2]; 120 min post injection): 0.05 ± 0.01 % dose/g
Biodistribution: Skin ([2]; 120 min post injection): 0.13 ± 0.03 % dose/g
Biodistribution: Spleen ([2]; 120 min post injection): 0.09 ± 0.03 % dose/g
Biodistribution result in words (organ uptake, retention, excretion) ([2]; normal mice after iv injection): excellent bone uptake and fast kidney excretion; also recorded: excellent bone uptake and retention
Micro-PET localization (in words) [3]: localized in the spines of mice
